From ChEMBL document CHEMBL1201862, “PubChem BioAssay data set” (2004)
Active and inactive are the calls of the source.

Experiments:
Genome polyprotein = Genome polyprotein (dengue virus type 2, UniProt P29990); assay: flavivirus cap methylation enzyme inhibition – biochemical, confirmation dose response, primary screen (AID 588689); format: functional
[1] = blockers of HIV-1 ZM109 envelope-driven cell-cell fusion – HeLa effector, CEM target cells, luciferase, cherry-pick, dose response (AID 652058); format: functional, cell-based;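 further: luciferase signal from HIV-1 Env mediated cell-cell fusion of effector and target cells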
[2] = HIV-1 AD8 envelope cell-cell fusion blockers – cherry-pick, dose response (AID 652062); format: functional, cell-based;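 further: luciferase signal from cell-cell fusion driven by HIV-1 clade B AD8 Env; potency is for inhibitors of fusion seen as a drop in luminescence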
[3] = blockers of HIV-1 envelope-mediated cell-cell fusion – cherry-pick, dose response (AID 652057); format: functional, cell-based
[4] = off-target signal loss in HeLa-CEM21 co-culture – HeLa F-luc CTL cells, cherry-picked, counter-screen for HIV-1 Env fusion inhibitor project, dose response (AID 652040); format: functional, cell-based;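 further: potency for signal decrease marking cytotoxic or nonspecific inhibition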
H9c2 = assay: cells; format: functional, cell-based; conditions: Rattus norvegicus, H9c2, Myocardium;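 further: confirmatory concentration-response retest of ultra-high-throughput screening hits for modulation of myocardial damage; cell death induced by hydrogen peroxide oxidative stress; compound pretreatment for 60 min then peroxide exposure for 2 h; potency is for protecting the cells against peroxide damage rather than for killing them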
cells = format: functional, cell-based; conditions: HEK-CNG
Galanin receptor type 3 = biological target: T1, Galanin receptor type 3 (Homo sapiens, UniProt O60755); assay: Fluorescence-based cell-based primary high throughput dose response assay to identify antagonists of the Galanin Receptor 3 (GalR3).; format: functional
T1 sequence (O60755 whole entry): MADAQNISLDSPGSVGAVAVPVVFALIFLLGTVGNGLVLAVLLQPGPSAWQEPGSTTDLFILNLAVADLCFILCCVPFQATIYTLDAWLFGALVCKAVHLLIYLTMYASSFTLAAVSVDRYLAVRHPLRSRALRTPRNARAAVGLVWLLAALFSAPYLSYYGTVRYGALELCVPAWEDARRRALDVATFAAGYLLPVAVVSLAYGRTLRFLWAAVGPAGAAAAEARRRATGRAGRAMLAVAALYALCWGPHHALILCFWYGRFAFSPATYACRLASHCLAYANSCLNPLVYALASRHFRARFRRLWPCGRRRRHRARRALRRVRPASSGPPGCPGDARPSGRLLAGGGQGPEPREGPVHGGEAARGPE

BJ [5] = assay: cells; format: functional, cell-based, Homo sapiens; conditions: Homo sapiens, BJ
[6] = biological target: T2, Replicative DNA helicase DnaB (Mycobacterium tuberculosis, UniProt P9WMR3); assay: DnaB intein splicing inhibitors, dose response, biochemical, cell-free fluorescence (AID 449749); format: functional
T2 sequence (P9WMR3 whole entry): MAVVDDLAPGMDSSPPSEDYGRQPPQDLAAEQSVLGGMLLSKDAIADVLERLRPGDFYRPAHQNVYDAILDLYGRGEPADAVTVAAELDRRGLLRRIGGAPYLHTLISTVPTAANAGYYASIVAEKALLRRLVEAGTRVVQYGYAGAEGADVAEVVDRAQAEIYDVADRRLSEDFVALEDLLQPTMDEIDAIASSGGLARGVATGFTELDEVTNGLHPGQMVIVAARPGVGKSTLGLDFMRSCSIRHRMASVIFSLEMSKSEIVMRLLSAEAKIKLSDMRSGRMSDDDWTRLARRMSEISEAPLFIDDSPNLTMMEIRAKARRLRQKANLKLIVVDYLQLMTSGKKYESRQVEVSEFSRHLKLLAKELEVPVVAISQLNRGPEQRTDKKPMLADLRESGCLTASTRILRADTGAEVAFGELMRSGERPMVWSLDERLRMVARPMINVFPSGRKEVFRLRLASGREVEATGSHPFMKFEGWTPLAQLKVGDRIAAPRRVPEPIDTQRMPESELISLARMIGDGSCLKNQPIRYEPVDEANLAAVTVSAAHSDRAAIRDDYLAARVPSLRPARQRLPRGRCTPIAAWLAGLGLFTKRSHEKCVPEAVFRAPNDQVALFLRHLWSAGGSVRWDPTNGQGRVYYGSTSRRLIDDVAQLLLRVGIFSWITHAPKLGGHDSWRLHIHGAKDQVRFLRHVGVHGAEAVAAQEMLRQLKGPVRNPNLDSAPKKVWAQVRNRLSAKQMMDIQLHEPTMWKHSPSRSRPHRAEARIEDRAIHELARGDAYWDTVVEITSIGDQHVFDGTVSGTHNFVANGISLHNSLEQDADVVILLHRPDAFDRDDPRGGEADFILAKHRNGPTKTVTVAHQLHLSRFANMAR

[7] = NIH3T3 cell viability loss – ATP luminescence, mouse fibroblasts, counter-screen, dose response (AID 2010); format: functional, cell-based;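 further: cells exposed to compound for about 90 hours before reading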
Protein RecA = biological target: T3, Protein RecA (Mycobacterium tuberculosis, UniProt P9WHJ3); assay: Fluorescence Cell-Free Homogeneous Dose Retest to Identify Inhibitors of RecA-Intein Splicing Activity. [Related pubchem assays (depositor defined):AID2097, AID2223, AID489010, AID492950]; format: functional
T3 sequence (P9WHJ3 whole entry): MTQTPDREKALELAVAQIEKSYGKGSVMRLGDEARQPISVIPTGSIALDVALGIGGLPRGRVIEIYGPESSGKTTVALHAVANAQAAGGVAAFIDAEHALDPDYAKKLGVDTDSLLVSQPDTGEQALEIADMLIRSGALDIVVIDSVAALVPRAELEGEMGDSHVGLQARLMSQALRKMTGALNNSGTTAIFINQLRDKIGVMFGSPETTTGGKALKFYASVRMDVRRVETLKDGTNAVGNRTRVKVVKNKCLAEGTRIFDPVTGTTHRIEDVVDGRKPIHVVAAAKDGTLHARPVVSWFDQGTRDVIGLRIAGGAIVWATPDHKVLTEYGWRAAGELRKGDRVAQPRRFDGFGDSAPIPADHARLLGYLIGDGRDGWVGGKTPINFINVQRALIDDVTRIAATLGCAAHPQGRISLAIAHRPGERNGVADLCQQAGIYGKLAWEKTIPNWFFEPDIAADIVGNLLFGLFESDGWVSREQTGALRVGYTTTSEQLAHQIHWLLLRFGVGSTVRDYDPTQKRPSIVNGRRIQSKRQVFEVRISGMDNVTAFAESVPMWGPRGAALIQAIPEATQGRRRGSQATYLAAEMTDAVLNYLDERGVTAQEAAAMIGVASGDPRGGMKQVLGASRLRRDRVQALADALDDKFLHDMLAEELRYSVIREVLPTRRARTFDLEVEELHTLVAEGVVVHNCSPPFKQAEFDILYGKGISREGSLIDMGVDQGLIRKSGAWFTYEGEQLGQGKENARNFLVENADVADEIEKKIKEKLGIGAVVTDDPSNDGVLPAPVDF

[8] = biological target: T4, Heat shock factor protein 1 (Mus musculus, UniProt P38532); assay: enhancement of HSF1-driven luciferase signal – cell-based, NIH3T3, luminescence, dose retest, confirmation (AID 435004); format: functional;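 further: stress induced by proteasome inhibitor MG132 added 30 min after compound; luciferase reporter driven by HSF1 response element in NIH3T3 cells; actives raise luminescence as potentiators of the MG132 stress response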
T4 sequence (P38532 whole entry): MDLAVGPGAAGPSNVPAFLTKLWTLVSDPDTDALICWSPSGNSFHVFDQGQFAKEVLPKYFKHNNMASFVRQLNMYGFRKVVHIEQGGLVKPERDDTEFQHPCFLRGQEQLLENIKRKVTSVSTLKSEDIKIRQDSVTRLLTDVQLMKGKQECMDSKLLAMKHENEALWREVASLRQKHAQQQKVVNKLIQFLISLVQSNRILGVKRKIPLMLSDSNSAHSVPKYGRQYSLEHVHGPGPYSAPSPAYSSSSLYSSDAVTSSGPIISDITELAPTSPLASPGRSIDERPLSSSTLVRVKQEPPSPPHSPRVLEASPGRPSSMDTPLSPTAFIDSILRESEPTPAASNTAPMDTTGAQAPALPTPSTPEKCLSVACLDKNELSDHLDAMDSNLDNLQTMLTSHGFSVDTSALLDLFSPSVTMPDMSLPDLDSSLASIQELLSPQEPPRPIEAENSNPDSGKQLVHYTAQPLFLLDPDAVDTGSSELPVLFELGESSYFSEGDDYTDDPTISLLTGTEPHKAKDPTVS

[9] = Trypanosoma cruzi growth suppression in host cells – NIH3T3 host cells, beta-gal luminescence, confirmation (AID 2044); format: functional, cell-based;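 further: intracellular parasites grown in NIH/3T3 mouse fibroblasts as host cells; luminescent beta-galactosidase reporter signal from transgenic T. cruzi replicating inside host cells; inhibitors lower the luminescence signal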
BJ [10] = assay: BJ-TERT-LT-ST fibroblast viability loss – cell-based, RAS-independent, luminescence, dose response (AID 1935); format: functional, Homo sapiens; conditions: Homo sapiens, BJ;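 further: BJ fibroblasts immortalized with TERT plus LT and ST oncogenes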
BJ [11] = assay: BJ-TERT fibroblast viability loss – cell-based, RAS-independent, luminescence, dose response (AID 1933); format: functional, Homo sapiens; conditions: Homo sapiens, BJ
[12] = biological target: Glucose-6-phosphate 1-dehydrogenase (Homo sapiens, UniProt P11413); assay: inhibition of Homo sapiens G6PD, dose series – biochemical, fluorescence, selectivity assay for P. falciparum G6PD inhibitor project, dose response (AID 504792); format: functional
Sequence of Glucose-6-phosphate 1-dehydrogenase (P11413 whole entry): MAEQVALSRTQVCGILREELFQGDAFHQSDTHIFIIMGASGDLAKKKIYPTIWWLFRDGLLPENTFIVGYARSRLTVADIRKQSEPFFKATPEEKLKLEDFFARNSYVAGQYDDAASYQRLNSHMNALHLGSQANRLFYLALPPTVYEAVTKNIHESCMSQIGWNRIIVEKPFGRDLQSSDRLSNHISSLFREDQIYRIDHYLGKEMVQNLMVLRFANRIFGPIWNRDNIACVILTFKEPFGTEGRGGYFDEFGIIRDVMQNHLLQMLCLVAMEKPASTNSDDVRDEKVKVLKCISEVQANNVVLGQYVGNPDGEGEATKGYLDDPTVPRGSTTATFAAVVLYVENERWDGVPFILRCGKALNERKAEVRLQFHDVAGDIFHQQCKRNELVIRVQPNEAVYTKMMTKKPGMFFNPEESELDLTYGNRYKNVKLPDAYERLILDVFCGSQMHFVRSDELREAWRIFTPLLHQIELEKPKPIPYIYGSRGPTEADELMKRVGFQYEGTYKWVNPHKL

[13] = DRD fibroblast viability loss – cell-based, non-viral oncogenic, luminescence, dose response (AID 1934); format: functional; conditions: Homo sapiens

Sequence of Genome polyprotein (P29990 2492-3391 limits assumed): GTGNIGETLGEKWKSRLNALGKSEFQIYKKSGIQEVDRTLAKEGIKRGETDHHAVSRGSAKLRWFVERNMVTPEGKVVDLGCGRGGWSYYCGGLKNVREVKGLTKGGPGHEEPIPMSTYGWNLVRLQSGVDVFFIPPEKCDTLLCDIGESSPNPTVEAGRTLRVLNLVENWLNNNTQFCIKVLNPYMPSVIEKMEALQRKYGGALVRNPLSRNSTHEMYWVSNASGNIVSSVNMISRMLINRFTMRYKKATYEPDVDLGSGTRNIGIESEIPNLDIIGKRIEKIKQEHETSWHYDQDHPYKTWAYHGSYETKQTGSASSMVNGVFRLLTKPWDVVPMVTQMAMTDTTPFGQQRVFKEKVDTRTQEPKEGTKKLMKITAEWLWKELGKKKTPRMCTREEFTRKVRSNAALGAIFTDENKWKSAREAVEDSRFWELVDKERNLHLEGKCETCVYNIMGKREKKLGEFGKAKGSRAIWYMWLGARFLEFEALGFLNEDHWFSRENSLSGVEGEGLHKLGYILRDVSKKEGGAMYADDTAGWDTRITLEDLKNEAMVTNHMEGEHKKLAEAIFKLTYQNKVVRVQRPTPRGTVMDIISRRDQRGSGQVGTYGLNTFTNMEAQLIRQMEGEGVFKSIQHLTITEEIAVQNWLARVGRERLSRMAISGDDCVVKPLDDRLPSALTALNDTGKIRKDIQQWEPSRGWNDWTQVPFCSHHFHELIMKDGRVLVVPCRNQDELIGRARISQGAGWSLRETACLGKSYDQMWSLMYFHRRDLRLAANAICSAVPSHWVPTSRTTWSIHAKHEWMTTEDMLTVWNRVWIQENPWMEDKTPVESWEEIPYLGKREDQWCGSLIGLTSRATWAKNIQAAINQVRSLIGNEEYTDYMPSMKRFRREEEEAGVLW

SMILES: O=C(O)CN1C(=O)/C(=C\c2cccc(OCc3ccccc3F)c2)SC1=S
- IC50 (Genome polyprotein): 38.2 µM (active)

SMILES: COc1ccc2nc(O)c(CN(Cc3cccs3)Cc3nnnn3Cc3ccccc3)cc2c1
- AC50 [1]: 5.4 µM (active)
- AC50 [2]: 4.94 µM (active)
- AC50 [3]: 3.01 µM (active)
- AC50 [4]: 4.44 µM (active)

SMILES: COc1cccc(Cn2nc(C(=O)O)c3ccccc3c2=O)c1
- IC50 (H9c2): > 79 µM (inactive)
- EC50 (cells): > 29.9 µM (inactive)
- IC50 (Galanin receptor type 3): > 29.9 µM (inactive)

SMILES: O=C(COC(=O)c1ccc2c(c1[N+](=O)[O-])C(=O)c1ccccc1C2=O)NC1CC1
- EC50 (BJ [5]): > 150 µM (not active)
- AC50 [6]: 3.81 µM (active)
- EC50 [7]: 9.54 µM (active)
- EC50 (Protein RecA): 0.238 µM (active)
- EC50 [8]: 17 µM (active)
- EC50 [9]: 4.65 µM (active)
- EC50 (BJ [10]): > 150 µM (not active)
- EC50 (BJ [11]): > 150 µM (not active)
- IC50 [12]: > 80 µM (inactive)
- EC50 [13]: > 150 µM (not active)

SMILES: CC1(C)CC(=O)C(=Cc2cn(CCC#N)nc2-c2ccc(F)cc2)C(=O)C1
- IC50 (Genome polyprotein): 52.8 µM (active)
